How the values were obtained:
[1] = Pharmacokinetic evaluation in rats, intragastric infusion; format: in vivo; conditions: SD rats, intragastric 2 mg/kg
Method: Drug Preparation: a certain amount of the drug was taken and added into a 2% Klucel LF+0.1% Tween 80 aqueous solution, to prepare a clear solution or a uniform suspension.
Dosage: SD rats were fasted overnight and given the drug by intragastric infusion at an administrated dose of 2 mg/kg and an administrated volume of 10 mL/kg each.
Operation: rats were dosed by intragastric infusion with the compounds. […] The heparinized sample tubes were then stored at −20° C., and the rats were allowed to eat food 2 h after the dosage.
Determination of contents of the compounds to be tested in the plasma of rats after intragastric infusion of the drugs at different concentrations: the plasma samples were thawed at room temperature, 50 μL each was taken and added into 130 μL of an internal standard working solution (1000 ng/mL, acetonitrile, tolbutamide), and the mixture was whirled for about 1 min and then centrifugated at 4° C. and 13000 rpm for 10 min. 50 μL of the supernatant was taken and mixed with 100 μL of 50% acetonitrile water, and then introduced for LC/MS/MS analysis.

THRα [2] = biological target: T1, THRα (Homo sapiens, UniProt P10827); assay: Agonistic activity toward THRα; format: biochemical
T1 sequence (P10827 1-410 isoform P10827-2): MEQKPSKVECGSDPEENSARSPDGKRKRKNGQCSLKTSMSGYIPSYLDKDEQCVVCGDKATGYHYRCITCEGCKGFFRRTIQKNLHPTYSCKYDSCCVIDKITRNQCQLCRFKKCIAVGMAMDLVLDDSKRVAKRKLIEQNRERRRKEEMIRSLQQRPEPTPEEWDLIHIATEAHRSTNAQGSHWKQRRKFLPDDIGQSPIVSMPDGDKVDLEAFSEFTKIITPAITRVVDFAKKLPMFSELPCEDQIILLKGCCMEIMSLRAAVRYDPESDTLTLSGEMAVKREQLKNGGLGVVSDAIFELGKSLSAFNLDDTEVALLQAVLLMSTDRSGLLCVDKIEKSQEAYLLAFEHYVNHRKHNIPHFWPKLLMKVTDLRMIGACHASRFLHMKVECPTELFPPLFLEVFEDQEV

mouse NASH model = assay: Mouse NASH model (high fat diet + CCl4), Compound 2; format: in vivo, C57BL/6J mice
Method: C57BL/6J mice were fed a high fat diet for 10 weeks to induce obesity (>38 g BW). Obese mice were injected intraperitoneally (i.p.) twice a week for four weeks with 0.5 μl/g 25% CCl4 (formulated in olive oil) to induce fibrosis, and one group of normal BW mice were injected i.p. twice a week for four weeks with olive oil to serve as a healthy control. During the same dosing period, obese mice were fed orally once a day for 28 days with vehicle or varying doses of Compound 2. On CCl4 dosing days, CCl4 was administered at 4 hours post compound or vehicle dosing. On day 27, all animals were fasted for about 16 hours before terminal euthanasia. On day 28, all animals were sacrificed and various biological parameters were analyzed. Total body, liver, heart and brain weight were measured and changes in liver and heart weight were normalized using brain weight. […] Liver tissue histology was analyzed for effects of Compound 2 on steatosis, inflammation and fibrosis. […] Liver samples were collected for whole transcriptome analysis by RNA sequencing (RNAseq). RNAseq library (n=5 per group) preparation and sequencing was performed using Illumina standard protocols. Alignment of sequencing reads was performed using STAR aligner software and read counts were estimated using RSEM. Differentially expressed genes (compared to vehicle-treated NASH control mice) were determined using EdgeR software. Gene ontology analysis was performed using Advaita software with fold-change and adjusted p-value cutoffs of >1.5 and <0.05, respectively. Gene ontologies were derived from the Gene Ontology Consortium database (2019 Apr. 26) (Ashbumer et al., Gene ontology: Tool for the unification of biology. Nature Genetics 25(1): 25-9 (2000); Gene Ontology Consortium, Creating the Gene Ontology Resource: Design and Implementation. Genome Research 11: 1425-1433 (2001)).

THRα [3] = biological target: T1, THRα; assay: Binding activity to THRα; conditions: read-out: IC50 THRα binding force
THRβ = biological target: T2, THRβ (Homo sapiens, UniProt P10828); assay: Binding activity to the thyroxine receptor beta; conditions: ratio of binding IC50
T2 sequence (P10828 1-461): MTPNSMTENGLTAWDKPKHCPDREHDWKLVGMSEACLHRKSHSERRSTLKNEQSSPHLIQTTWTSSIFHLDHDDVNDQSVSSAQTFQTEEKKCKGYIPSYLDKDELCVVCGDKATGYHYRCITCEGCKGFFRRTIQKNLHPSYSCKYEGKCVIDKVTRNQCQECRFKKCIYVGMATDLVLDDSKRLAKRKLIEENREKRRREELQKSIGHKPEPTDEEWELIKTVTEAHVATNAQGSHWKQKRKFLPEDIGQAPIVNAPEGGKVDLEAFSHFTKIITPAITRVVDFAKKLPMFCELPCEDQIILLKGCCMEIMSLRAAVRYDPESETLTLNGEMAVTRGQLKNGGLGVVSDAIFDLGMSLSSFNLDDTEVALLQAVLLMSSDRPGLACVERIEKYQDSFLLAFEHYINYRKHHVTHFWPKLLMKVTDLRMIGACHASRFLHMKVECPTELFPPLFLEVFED

SMILES: N#Cc1nn(-c2cc(Cl)c(Oc3n[nH]c(=O)c4ccccc34)c(Cl)c2)c(=O)[nH]c1=O [Compound 2]
- Curve area [1]: 24790 ± 3704 ng·h/mL
- Peak blood drug concentration [1]: 2007 ± 106 ng/mL
- Time to peak [1]: 4.67 ± 1.15 h
- EC50 (THRα [2]): 3.98 µM
- liver fibrosis (histology) (mouse NASH model; 3 and 10 mpk): significantly reduced
- liver steatosis (histology) (mouse NASH model; all doses tested): significantly reduced
- serum ALT (mouse NASH model; all doses tested): significantly reduced
- serum total cholesterol (mouse NASH model; all doses tested): significantly reduced
- serum triglycerides (mouse NASH model; all doses tested): significantly reduced
- expression of genes associated with collagen extracellular matrix and hepatic stellate cell activation relative to NASH control (mouse NASH model; liver RNAseq): reducing their expression levels
- heart/brain weight (mouse NASH model; oral once a day, 28 days): no effect
- liver inflammation (histology) (mouse NASH model; oral once a day, 28 days): trend in inflammation reduction
- liver/brain weight (mouse NASH model; oral once a day, 28 days): significantly reduced
- total body weight (mouse NASH model; oral once a day, 28 days): no effect
- IC50 (THRα [3]): > 10 µM
- THRα/β selectivity (factor) (THRβ): >58.8

Source: patent US20240000765A1, “COMBINATION TREATMENT OF LIVER DISORDERS” (Terns Pharmaceuticals, Inc., priority 2020, published 2024)
